Columns and labels:
[1] = target: T1, Protein arginine N-methyltransferase 1 (Homo sapiens, UniProt Q99873); test: (§1) Inhibition of recombinant human N-terminal GST-tagged PRMT1 (2 to end residues) expressed in baculovirus infected Sf9 insect cells at 9 uM using biotinylated histone H4 peptide as substrate preincubated for 15 mins followed by substrate/[3H]-SAM addition measured after 60 mins by microbeta liquid scintillation counting analysis
Target sequence in this assay (Q99873 whole entry, looked up): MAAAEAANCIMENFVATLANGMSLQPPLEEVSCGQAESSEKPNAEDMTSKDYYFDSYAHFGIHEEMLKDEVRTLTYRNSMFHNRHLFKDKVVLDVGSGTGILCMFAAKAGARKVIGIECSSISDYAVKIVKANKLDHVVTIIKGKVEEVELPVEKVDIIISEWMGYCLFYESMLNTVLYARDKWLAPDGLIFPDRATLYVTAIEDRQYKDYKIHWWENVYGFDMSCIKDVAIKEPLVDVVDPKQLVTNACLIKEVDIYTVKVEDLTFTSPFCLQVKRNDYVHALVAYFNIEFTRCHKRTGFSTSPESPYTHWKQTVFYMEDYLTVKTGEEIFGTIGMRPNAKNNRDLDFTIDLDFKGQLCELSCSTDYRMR

[2] = target: T1, Protein arginine N-methyltransferase 1; test: as §1, with “cells” for “cells at 9 uM”
Target sequence in this assay (Q99873 whole entry): as the sequence (Q99873 whole entry, looked up) above

[3] = test system: Daoy; test: Cytotoxicity against human DaOY cells assessed as reduction in cell viability after 72 hrs by CellTiter-blue assay; type: functional, cell-based
[4] = test system: HepG2; test: Cytotoxicity against human HepG2 cells assessed as reduction in cell viability after 72 hrs by CellTiter-blue assay; type: functional, cell-based; conditions: HepG2, 72 h
[5] = test system: MCF7; test: Cytotoxicity against human MCF7 cells assessed as reduction in cell viability after 72 hrs by CellTiter-blue assay; type: functional, cell-based; conditions: MCF7, 72 h
[6] = target: T1, Protein arginine N-methyltransferase 1; test: Potency index, ratio of AMI-1 IC50 to compound IC50 for recombinant human N-terminal GST-tagged PRMT1 (2 to end residues) expressed in baculovirus infected Sf9 insect cells
Target sequence in this assay (Q99873 whole entry, looked up): as above

Nc1ncnc2c1ncn2[C@@H]1O[C@H](CSCC[C@H](N)C(=O)O)[C@@H](O)[C@H]1O
inhibition [1]: 90%

CNCCN(C)Cc1ccc(-c2cccc(OC)c2)o1
inhibition [1]: 37%

CNCCN(C)c1nnnn1Cc1ccccc1C(F)(F)F
inhibition [1]: 13%

COC(=O)c1cccc(-c2ccc(CN(C)CCN)o2)c1
inhibition [1]: 38%

CNCCN(C)Cc1ccc(-c2ccc(C(=O)OC)cc2)o1
inhibition [1]: 32%

CN(CCN)Cc1ccc(-c2cccc(C(F)(F)F)c2)o1
inhibition [1]: 31%

CN(CCN)Cc1ccc(-c2cccc(OC(F)(F)F)c2)o1
inhibition [1]: 46% | IC50 [2]: 14 µM | IC50 [3]: > 100 µM | IC50 [4]: > 100 µM | IC50 [5]: > 100 µM

CNCCN(C)Cc1ccc(-c2ccc(OC(F)(F)F)cc2)o1
inhibition [1]: 40% | IC50 [2]: 17 µM | IC50 [3]: 24.3 µM | IC50 [4]: 24.2 µM | IC50 [5]: 30.6 µM

CN(CCN)Cc1ccc(-c2ccc(OC(F)(F)F)cc2)o1
inhibition [1]: 25%

CNCCN(C)Cc1ccc(-c2cccc(C#N)c2)o1
inhibition [1]: 33%

CN(CCN)Cc1ccc(-c2ccc(C(F)(F)F)cc2)o1
inhibition [1]: 37%

CNCCN(C)c1nnnn1Cc1ccc(OC)cc1
inhibition [1]: 0%

COC(=O)c1ccc(-c2ccc(CN(C)CCN)o2)cc1
inhibition [1]: 30%

CNCCN(C)c1nnnn1Cc1ccc(C(F)(F)F)cc1
inhibition [1]: 2%

COc1cccc(-c2ccc(CN(C)CCN)o2)c1
inhibition [1]: 24%

CNCCN(C)Cc1ccc(-c2cccc(C(=O)OC)c2)o1
inhibition [1]: 51% | IC50 [2]: 14 µM | IC50 [3]: 71.2 µM | IC50 [4]: 74.1 µM | IC50 [5]: > 100 µM

CNCCN(C)Cc1ccc(-c2ccc(C(F)(F)F)cc2)o1
inhibition [1]: 43% | IC50 [2]: 8.2 µM | Ratio IC50 [6]: 3 | IC50 [3]: 72.8 µM | IC50 [4]: 36.4 µM | IC50 [5]: 49.8 µM

CNCCN(C)c1nnnn1Cc1cccc(OC(F)(F)F)c1
inhibition [1]: 12%

CNCCN(C)Cc1ccc(-c2ccc(OC)cc2)o1
inhibition [1]: 38%

COc1ccc(-c2ccc(CN(C)CCN)o2)cc1
inhibition [1]: 25%

CNCCN(C)Cc1ccc(-c2ccc(C#N)cc2)o1
inhibition [1]: 35%

CN(CCN)Cc1ccc(-c2cccc(C#N)c2)o1
inhibition [1]: 38%

FC(F)(F)c1cccc(Cn2nnnc2N2CCNCC2)c1
inhibition [1]: 1%

CNCCN(C)c1nnnn1Cc1ccccc1OC(F)(F)F
inhibition [1]: 9%

CNCCN(C)c1nnnn1Cc1ccc(C#N)cc1
inhibition [1]: 6%

O=C(Nc1ccc2c(O)cc(S(=O)(=O)O)cc2c1)Nc1ccc2c(O)cc(S(=O)(=O)O)cc2c1
IC50 [3]: > 100 µM | IC50 [4]: 51.2 µM | IC50 [5]: > 100 µM

CNCCN(C)Cc1ccc(-c2cccc(C(F)(F)F)c2)o1
inhibition [1]: 43% | IC50 [2]: 14 µM | IC50 [3]: 69.8 µM | IC50 [4]: 34.5 µM | IC50 [5]: 61.1 µM

CNCCN(C)c1nnnn1Cc1cccc(C(F)(F)F)c1
inhibition [1]: 8%

CNCCN(C)c1nnnn1Cc1ccc(OC(F)(F)F)cc1
inhibition [1]: 5%

CNCCN(C)Cc1ccc(-c2cccc(OC(F)(F)F)c2)o1
inhibition [1]: 41% | IC50 [2]: 14 µM | IC50 [3]: 23.6 µM | IC50 [4]: 23 µM | IC50 [5]: 64.4 µM

Reference: ChEMBL document CHEMBL4043236, “Design and synthesis of novel PRMT1 inhibitors and investigation of their binding preferences using molecular modelling” (Bioorg Med Chem Lett, 2017)
